Test results from patent publication US5658938A, “Substituted 1H-imidazoles” (U C B S.A., priority 1994, dated 1997).
Read-outs that look alike come from different tables or passages of the source.

Assays:
α-adrenergic receptors = settings: cited from earlier work
[1] = target: T1, postsynaptic α1 -adrenergic receptor (Rattus norvegicus, UniProt P23944); test: Postsynaptic α1-antagonist activity: inhibition of norepinephrine-induced contraction of the isolated aorta of the rat; settings: read-out: ED30 (concentration which causes 30% inhibition of the contraction induced by norepinephrine)
T1 construct: isolated aorta of the rat; from tissue; host or cells: rat isolated aorta
T1 sequence (P23944 1-561): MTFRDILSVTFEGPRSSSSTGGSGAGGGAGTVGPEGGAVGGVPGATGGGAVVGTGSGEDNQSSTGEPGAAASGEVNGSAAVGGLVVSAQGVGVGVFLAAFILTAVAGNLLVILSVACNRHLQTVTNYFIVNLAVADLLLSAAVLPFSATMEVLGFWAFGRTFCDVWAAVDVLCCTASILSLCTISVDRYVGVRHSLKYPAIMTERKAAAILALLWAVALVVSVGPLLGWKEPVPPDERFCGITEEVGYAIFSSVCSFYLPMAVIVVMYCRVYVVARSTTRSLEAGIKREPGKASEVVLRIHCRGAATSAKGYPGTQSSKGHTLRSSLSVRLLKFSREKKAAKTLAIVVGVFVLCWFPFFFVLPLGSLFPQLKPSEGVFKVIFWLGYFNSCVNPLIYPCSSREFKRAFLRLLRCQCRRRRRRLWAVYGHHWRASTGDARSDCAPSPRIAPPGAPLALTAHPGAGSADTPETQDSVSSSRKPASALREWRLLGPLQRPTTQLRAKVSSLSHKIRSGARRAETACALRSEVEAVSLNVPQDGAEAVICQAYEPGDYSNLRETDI
Protocol: A non selective α-agonist substance such as norepinephrine induces a sustained contraction of the isolated aorta of the rat (J. M. Van Rossum Arch. Int. Pharmacodyn. 143, (1963), 299-330). This contraction can be inhibited by α1 -adrenergic blocking substances such as prazosin. In this test, a control contraction is carried out with norepinephrine at 3.2×10^-8 mole/l. After washing and stabilizing the preparation, the compound to be tested is added to the bath. Norepinephrine is added 5 minutes after the compound tested, and inhibition of the contraction induced by norepinephrine is measured. Next, inhibition of the contraction induced by norepinephrine is evaluated a second and third time in the presence of increasing concentrations of the compound tested.

[2] = tested on: coronary occlusion in the rat; test: Anti-ischemic and anti-hypertensive activity: coronary occlusion in the anesthetized rat (elevation of the T wave of the electrocardiogram, arterial pressure); format: in vivo, male albino rat of the Sprague-Dawley strain; settings: Rattus norvegicus, iv
Description: The cardiac anti-ischemic activity of compounds manifests itself by their capacity to oppose the elevation of the T wave of the electrocardiogram, induced by a coronary occlusion in the rat. Continuous monitoring of the arterial pressure also enables to reveal the anti-hypertensive effects. The animal used for the test is a male albino rat of the Sprague-Dawley strain, weighing 220 to 280 g. On the day of the experiment, the animal is anesthetized by intraperitoneal administration of pentobarbital (60 mg/kg), then placed under endotracheal intubation. A ligature system is fitted around the descending left anterior coronary artery according to the procedure of Johnston et el. (Can. J. Physiol. Pharmacol., 61 (1983), 1340-1353). After closing the thorax, three electrodes are arranged on the body of the animal ("V4" thoracic derivation), in order to continuously record the shape of the electrocardiogram signal (in particular the T wave). Catheters are introduced into the right carotid artery and the right jugular vein to measure the arterial pressure and to administer intravenously the compound tested or the vehicle solution. Four 45 second coronary occlusions are performed, separated by episodes of reperfusion of 30, 35 and 30 minutes respectively. The compound to be studied or the vehicle are administered intravenously in bolus, 30 minutes before occlusion 3. The T electrocardiographic signal and the arterial pressure are continuously measured during the entire experiment.
The effects of the compounds according to the invention are quantified by comparing the amplitude of the elevation of the T wave at occlusions 3 and 4 (that is 30 minutes and 60 minutes after administration) with its value at occlusion 2 (that is before administration).
the second column indicates the dose of compound administered, expressed in mole/kg;
the third and the fourth columns indicate the anti-ischemic effect caused by administering the compound tested. The anti-ischemic effect represents the reduction in the elevation of the T wave caused by coronary occlusions 3 and 4, expressed in % with respect to occlusion 2, before administration of the compound (ΔT3 and ΔT4 respectively);
the fifth and sixth columns indicate the anti-hypertensive effect caused by administration of the compound tested. The anti-hypertensive effect is expressed as the maximum lowering of arterial pressure, measured a) between 5 and 30 minutes, and b) between 30 and 60 minutes after intravenous injection of the compound tested (ΔPa and ΔPb respectively). This lowering is expressed in % with respect to the value measured before injection.

[3] = tested on: presynaptic α2 -adrenergic receptors; test: Inhibition of the contraction of the electrically stimulated guinea pig ileum (presynaptic α2-agonist activity); settings: guinea pig ileum longitudinal muscle strips, electrical stimulation
Description: Longitudinal muscle strips attached to an isometric strain gauge are suspended in Tyrode's solution and are stretched under a tension of 1 g (G. M. Drew, Brit. J. Pharmacol. 64, (1978), 293-300; M. Andrejak et al., Naunyn-Schmiedeberg's Arch. Pharmacol. 314, (1980), 83-87).
Electrical stimulation of the parasympathetic nerves associated with the ileum fragments causes a contraction of the muscle. This contraction is reduced in the presence of a presynaptic α2 -agonist and the magnitude by which the contraction is reduced depends on the concentration of the agonist used. This effect is antagonised by the simultaneous presence of an α2 -antagonist such as alpha-yohimbine.
The IC30 concentration (in mole/l) that reduces by 30% the intensity of the contraction of the muscle is determined.

male NMRI mice = test: Toxicity, Irwin's test; format: in vivo; settings: intraperitoneal
Protocol: The toxicity of the compounds of the invention has been determined in male NMRI mice by means of Irwin's test (S. Irwin, Psychopharmacologia (Berl.), 13, (1968), 222-257).
Progressive doses of the product studied are administered intraperitoneally to groups of three mice until a lethal dose is reached (dose causing the death of two out of three animals in 48 hours). It follows from this Table that the compounds of the invention are not very toxic.

[4] = 0.5 h, read-out: ΔPa (maximum lowering of arterial pressure)
[5] = 0.5 h, read-out: ΔT3 (anti-ischemic effect: change in elevation of the T wave, occlusion 3 vs occlusion 2)
[6] = 1 h, read-out: ΔPb (maximum lowering of arterial pressure)
[7] = 1 h, read-out: ΔT4 (anti-ischemic effect: change in elevation of the T wave, occlusion 4 vs occlusion 2)

Structure (SMILES)	affinity towards α-adrenergic receptors, in words (α-adrenergic receptors)	IC30 [1] [nM]	change in vivo at 3 µmol/kg [2, 4] [%]	change in vivo at 3 µmol/kg [2, 5] [%]	change in vivo at 3 µmol/kg [2, 6] [%]	change in vivo at 3 µmol/kg [2, 7] [%]	IC30 (concentration that reduces by 30% the intensity of the contraction of the muscle) [3] [nM]	Lethal dose (dose causing the death of two out of three animals in 48 hours) (male NMRI mice) [mg/kg]	change in vivo at 1 µmol/kg [2, 4] [%]	change in vivo at 1 µmol/kg [2, 5] [%]	change in vivo at 1 µmol/kg [2, 6] [%]	change in vivo at 1 µmol/kg [2, 7] [%]
CC1(c2c[nH]cn2)CCCc2ccccc21 (stereo not shown) [4-(1,2,3,4-tetrahydro-1-methyl-1-naphthalenyl)-1H-imidazole]	slight affinity	–	–	–	–	–	–	–	–	–	–	–
Cl.Oc1ccc2c(c1)CCC2c1c[nH]cn1 (stereo not shown) [Compound H, 2,3-dihydro-1-(1H-imidazol-4-yl)-1H-indene-5-ol hydrochloride]	–	210	-23	-48	-19	-55	36	236.7	–	–	–	–
COc1cccc2c1C(c1c[nH]cn1)CCC2 (stereo not shown) [Compound I, 4-(1,2,3,4-tetrahydro-8-methoxy-1-naphthalenyl)-1H-imidazole]	–	1800	–	–	–	–	8000	228.3	-26	-37	-16	-57
COc1cc2c(cc1OC)C(c1c[nH]cn1)CCC2 (stereo not shown) [Compound J, 4-(1,2,3,4-tetrahydro-6,7-dimethoxy-1-naphthalenyl)-1H-imidazole]	–	2900	–	–	–	–	130	258.3	-23	-31	-16	-29
